Counter-ions that a name gives are not always drawn. Blank lines part the entries; values can stand above or below the compound they belong to.
Legend:
[1] = Hygroscopicity observed during salt evaluation (mainly through visualization); assay type: physicochemical
Source text: Determining whether a solid would form was just one factor in this evaluation. […] See, e.g., C. Saal, A. Becker, Euro.

[2] = Thermodynamic solubility (24 hours agitation at RT, filtration, nitrogen detector); assay type: physicochemical; conditions: for Solubility pH 1.2: pH 1.2, 24 hours at RT; for Solubility pH 6.5: pH 6.5, 24 hours at RT; for Solubility pH 7.4: pH 7.4, 24 hours at RT
Protocol: Four hundred fifty microliters (450 μL) of the desired medium was added to the filter and agitated for 24 hours at RT. After 24 hours, the sample was filtered and the filtrates were injected into a nitrogen detector for quantification.
pH 1.2: Weigh out 1.0 g of NaCl and transfer to a beaker. Add about 450 mL HPLC-grade water to dissolve the NaCl. […] Transfer the solution to a 500 mL volumetric flask and bring to 500 mL with HPLC-grade water.
pH 6.5: Titrate about 250 mL of 50 mM NaPO4 dibasic with about 500 mL of 50 mM NaPO4 monobasic to pH 6.5. The ending total volume is the volume at the point the solution has a pH 6.5 is reached when adding 50 mM NaPO4 monobasic to the 50 mM NaPO4 dibasic.
pH 7.4: Titrate about 200 mL of 50 mM NaPO4 dibasic with about 50 mL of 50 mM NaPO4 monbasic to pH 7.4. The ending total volume is the volume at the point the solution has a pH 7.4 is reached when adding 50 mM NaPO4 monobasic to the 50 mM NaPO4 dibasic.

[3] = Pharmacokinetic studies, oral dose, male (fasted) cynomolgus monkeys; assay type: in vivo
Protocol: Pharmacokinetic studies were conducted in male (fasted) cynomolgus monkeys (n=2 for each formulation). An oral pill was prepared to compare Form 1 and Form 2. […] The dosage was administered as an oral dose containing 2, 5, or 10 mg/kg, respectively. Serial blood samples were collected at the 0, 0.25, 0.5, 1, 2, 4, 7, and 24-hour time points via the femoral vein by syringe and transferred into K3EDTA vacutainers. Blood samples were then centrifuged, the plasma harvested and stored at −20° C. or −80° C. until analysis.
The appropriate amount of either Form 1 or Form 2 was transferred into a mortar. The corresponding amount of the excipient blend was then geometrically added to the mortar and mixed thoroughly with the respective Form 1 or Form 2 using a pestle. The mixture was transferred to a container, and blended on a Turbula mixer for 5 minutes to provide a blend containing the respective Form 1 or Form 2 mixed with the excipients.
The tablets were compressed to achieve 100 mg tablet weight, with target tablet hardness between 4 and 9 kp at the press speed of 15 tablets per minute.
To prepare a representative batch size of 1 L of 0.5% (w/v) methylcellulose (Methocel® A4M) solution, approximately 0.4 L of deionized water was heated to 80-90° C. after which 5 grams of methylcellulose (Methocel® A4M) was added and mixed thoroughly until the particles were thoroughly wetted. The mixture was then removed from heat. Cold water (0.6 L) was then added, while continuously stirring in the ice bath, until all the methylcellulose particles were dissolved.
The solid powder was triturated (lumps broken) using a pestle. Two mL of 0.5% w/v methylcellulose (Methocel® A4M) was added to the powder drop-wise. The vehicle and free acid were well mixed to form a smooth paste. The remaining of the vehicle was added in small aliquots while mixing until a uniform suspension was obtained. […] Twenty-two microliter of Polysorbate 80 (Tween® 80) was added to the suspension.
The solid powder was triturated (lumps broken) using a pestle. Small amount of 0.5% w/v methylcellulose (Methocel® A4M) was added to the powder to form a smooth paste. The remaining of the vehicle was added in small aliquots while mixing until a uniform suspension was obtained. The suspension was transferred to a container and made up to final volume of 50 mL.

[4] = Hygroscopicity by dynamic vapor sorption; assay type: physicochemical; conditions: at 90% RH/25° C.
Protocol: Hygroscopicity was measured using a dynamic vapor sorption instrument manufactured by TA Instruments or Surface Measurement Systems. A sample of each Form was exposed to incremental RH levels until either a weight equilibrium (seen as a plateau) of ≤0.001% weight change in 5 minutes was met, or a maximum time of 120 minutes at each RH level. After the shorter of 0.001% weight equilibrium in 5 minutes or 120 minutes, the sample was then exposed to the next RH level. There was an initial drying period where weight may have been lost with Form 1, no drying was utilized for Form 2. The process starts at 10% RH with RH increased to 20% RH and then a 10% RH increase after each interval (0.001% in 5 minutes equilibrium or 120 min, whichever occurred first). At 90% RH, the RH was reversed back to 10% RH using the same equilibration criteria. The hygroscopicity is measured as a function of the percent weight gain measured at 90% RH.

[5] = Thermodynamic stability of crystalline forms versus water activity; assay type: physicochemical; conditions: ambient temperature; 0.2 corresponds to 20% RH
[6] = Immediate Release Tablet, 2 mg/kg

hygroscopicity of the isolated solid (observation) [1]: too hygroscopic
Compound: sodium

Solubility pH 1.2 ([2]; listed as Free acid - batch A): 11.8 (avg, n = 2, μM | Solubility pH 1.2 ([2]; listed as Free acid - batch B): 13.0 (avg, n = 2, μM | Solubility pH 1.2 ([2]; listed as Free acid - batch C): <0.5 μM | Solubility pH 6.5 ([2]; listed as Free acid - batch A): 44.7 (avg, n = 2, μM | Solubility pH 6.5 ([2]; listed as Free acid - batch B): 222.0 (avg, n = 2, μM | Solubility pH 6.5 ([2]; listed as Free acid - batch C): 19.6 μM | Solubility pH 7.4 ([2]; listed as Free acid - batch A): 255.0 (avg, n = 2, μM | Solubility pH 7.4 ([2]; listed as Free acid - batch B): 1700.0 (avg, n = 2, μM | Solubility pH 7.4 ([2]; listed as Free acid - batch C): 194.0 μM | AUC/Dose ([3]; Suspension, 10 mg/kg): 4120 ng*h/ml/mpk
Compound: COc1cc(C(=O)N2CCC3(CC2)CC(=O)c2c(cnn2C(C)C)C3)cc(-c2ccc(C(=O)O)cc2)n1 [Compound 1, 4-(4-(1-isopropyl-7-oxo-1,4,6,7-tetrahydrospiro[indazole-5,4′-piperidine]-1′-carbonyl)-6-methoxypyridin-2-yl)benzoic acid]

Solubility pH 1.2 [2]: 13.5 μM | Solubility pH 6.5 [2]: 1500.0 μM | Solubility pH 7.4 [2]: 5050.0 μM | hygroscopicity of the isolated solid (observation) [1]: too hygroscopic
Compound: [Ca] [Calcium]

Solubility pH 1.2 ([2]; listed as Tris (Form 1)): 1320.0 μM | Solubility pH 6.5 ([2]; listed as Tris (Form 1)): 3980.0 μM | Solubility pH 7.4 ([2]; listed as Tris (Form 1)): 4770.0 μM | AUC/Dose [3, 6]: 5750 ng*h/ml/mpk | AUC/Dose ([3]; Suspension, 5 mg/kg): 7240 ng*h/ml/mpk | hygroscopicity (percent weight gain) [4]: about 1% | water activity at which the form is thermodynamically stable [5]: < 0.2
Compound: COc1cc(C(=O)N2CCC3(CC2)CC(=O)c2c(cnn2C(C)C)C3)cc(-c2ccc(C(=O)O)cc2)n1 [Form 1, 4-(4-(1-isopropyl-7-oxo-1,4,6,7-tetrahydrospiro[indazole-5,4′-piperidine]-1′-carbonyl)-6-methoxypyridin-2-yl)benzoic acid anhydrous tris salt]

hygroscopicity of the isolated solid (observation) [1]: too hygroscopic
Compound: [K+] [potassium]

Compound: O=S(=O)(O)O [sulfuric acid]
hygroscopicity of the isolated solid (observation) [1]: very hygroscopic

AUC/Dose [3, 6]: 5650 ng*h/ml/mpk | hygroscopicity (percent weight gain) [4]: about 1% | water activity at which the form is thermodynamically stable [5]: > 0.2
Compound: COc1cc(C(=O)N2CCC3(CC2)CC(=O)c2c(cnn2C(C)C)C3)cc(-c2ccc(C(=O)O)cc2)n1 [Form 2]
